# Laboratory results reported in ChEMBL document CHEMBL4007423, “Discovery of quinone-directed antitumor agents selectively bioactivated by NQO1 over CPR with improved safety profile” (Eur J Med Chem, 2017).
# Active and inactive are the calls of the source. The rule behind the calls is not given here.
# Columns and labels:
# [1] = target: T1, NADPH--cytochrome P450 reductase (Homo sapiens, UniProt P16435); assay: Substrate activity at recombinant human CPR expressed in baculovirus infected insect cells assessed as compound reduction rate by measuring NADPH consumption per umol of enzyme preincubated for 3 mins followed by NADPH addition measured for 5 mins at 2 sec time interval by UV-Visible spectroscopic method; format: ADME
# T1 sequence (P16435 whole entry): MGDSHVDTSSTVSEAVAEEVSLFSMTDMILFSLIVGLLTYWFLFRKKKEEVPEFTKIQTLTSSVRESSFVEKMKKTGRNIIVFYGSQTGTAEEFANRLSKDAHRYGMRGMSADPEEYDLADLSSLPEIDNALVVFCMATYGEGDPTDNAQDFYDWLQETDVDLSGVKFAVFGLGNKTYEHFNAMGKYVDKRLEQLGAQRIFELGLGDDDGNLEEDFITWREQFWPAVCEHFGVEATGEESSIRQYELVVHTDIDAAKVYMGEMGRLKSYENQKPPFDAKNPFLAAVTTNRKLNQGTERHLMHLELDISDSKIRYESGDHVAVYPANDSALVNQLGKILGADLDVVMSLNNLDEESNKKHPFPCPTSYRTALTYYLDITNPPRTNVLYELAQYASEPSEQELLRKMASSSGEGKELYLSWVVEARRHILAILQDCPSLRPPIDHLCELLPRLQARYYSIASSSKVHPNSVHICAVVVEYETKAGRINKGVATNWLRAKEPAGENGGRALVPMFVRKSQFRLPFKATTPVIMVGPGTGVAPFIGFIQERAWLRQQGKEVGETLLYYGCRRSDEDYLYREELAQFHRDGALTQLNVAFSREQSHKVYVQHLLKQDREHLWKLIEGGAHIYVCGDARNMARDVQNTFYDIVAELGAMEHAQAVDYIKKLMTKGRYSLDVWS
# [2] = Electrochemical behavior of the compound assessed as electrochemical redox potential with reference to ferrocene at 1 mM using Ag/AgCl reference electrode measured up to -2 V at potential sweep rates of 50 mV/s by cyclic voltammetry
# Homo sapiens = species on record: Homo sapiens; assay: Selectivity ratio of compound reduction rate catalyzed by recombinant human NQO1 expressed in Escherichia coli to compound reduction rate catalyzed by recombinant human CPR expressed in baculovirus infected insect cells
# [3] = Selectivity ratio of IC50 for substrate activity at CPR in human L02 cells assessed as cell growth inhibition to IC50 for substrate activity at NQO1 in human A549 cells assessed as cell growth inhibition
# A549 [4] = assay: Antitumor activity against human A549 cells xenografted in athymic nude mouse assessed as tumor growth inhibition at 30 mg/kg, iv administered every other day for 3 weeks measured twice per week during compound dosing relative to control; format: functional; details: 504 h, read-out: TGI
# A549 [5] = assay: Antitumor activity against human A549 cells xenografted in athymic nude mouse assessed as tumor growth inhibition at 15 mg/kg, iv administered every other day for 3 weeks measured twice per week during compound dosing; format: functional, organism-based
# Mus musculus [6] = assay: Toxicity in athymic nude mouse xenografted with human A549 cells assessed as change in body weight at 15 to 30 mg/kg, iv administered every other day for 3 weeks measured twice per week during compound dosing; format: organism-based; details: in vivo, 504 h
# NCI-H596 = assay: Cytotoxicity against NQO1-deficient human NCI-H596 cells assessed as cell growth inhibition treated for 24 hrs measured after 72 hrs by MTT assay; format: functional, cell-based
# A549 [7] = assay: Cytotoxicity against NQO1 inhibitor dicoumarol pretreated human A549 cells assessed as cell growth inhibition treated for 24 hrs measured after 72 hrs by MTT assay; format: functional, cell-based
# Mus musculus [8] = assay: Toxicity in athymic nude mouse xenografted with human A549 cells assessed as change in body weight at 30 mg/kg, iv administered every other day for 3 weeks measured twice per week during compound dosing; format: organism-based; details: in vivo, 504 h
# [9] = target: T1, NADPH--cytochrome P450 reductase; assay: Substrate activity at CPR in human L02 cells assessed as CPR-mediated one-electron reduction of compound by measuring cell growth inhibition at 20 to 100 uM treated for >8 hrs measured after 72 hrs by MTT assay; format: cell-based
compound,measurement,setting,value
Cc1cc2c(cc1C)-c1occc1C(=O)C2=O,Activity,[1],400 µmol/min
COc1cccc2c1C1=C(C(=O)C2=O)C(C)(C)C(C)O1 (configuration not stated),Activity,[1],764 µmol/min
same,Activity,[2],-1.1 V
CC1(C)CC2=C(O1)c1ccccc1C(=O)C2=O [NOR-BETA-LAPACHONE],Activity,[1],1427 µmol/min
same,Selectivity ratio,Homo sapiens,0.52
Cc1ccc2c(c1)-c1occ(C)c1C(=O)C2=O,Ratio IC50,[3],1.54
same,Activity,[1],835 µmol/min
same,Activity,[2],-1.05 V
same,Selectivity ratio,Homo sapiens,1.25
CCc1coc2c1C(=O)C(=O)c1cc(C)c(C)cc1-2,Activity,[1],818 µmol/min
CCc1coc2c1C(=O)C(=O)c1ccc(C)cc1-2,Activity,[1],1014 µmol/min
same,Selectivity ratio,Homo sapiens,1.17
Cc1coc2c1C(=O)C(=O)c1ccccc1-2,Activity,[1],1201 µmol/min
same,Activity,[2],-1.03 V
same,Selectivity ratio,Homo sapiens,0.63
Cc1ccc2c(c1)C(=O)C(=O)c1c(C)coc1-2,Ratio IC50,[3],2.59
same,Activity,[1],891 µmol/min
same,Activity,[2],-1.04 V
same,Selectivity ratio,Homo sapiens,1.82
CC1OC2=C(C(=O)C(=O)c3ccccc32)C1(C)C (configuration not stated),Activity,[1],1437 µmol/min
same,Activity,[2],-1.01 V
same,Selectivity ratio,Homo sapiens,0.7
COc1ccc2c(c1)C1=C(C(=O)C2=O)C(C)(C)C(C)O1 (configuration not stated),Activity,[1],812 µmol/min
same,Activity,[2],-1.13 V
CC1(C)C=CC2=C(O1)C(=O)c1ccccc1C2=O [DEHYDRO-ALPHA-LAPACHONE],Activity,[1],852 µmol/min
same,Activity,[2],-1.22 V
same,Selectivity ratio,Homo sapiens,0.91
CC1CC2=C(O1)c1ccccc1C(=O)C2=O (configuration not stated),Activity,[1],905 µmol/min
same,Selectivity ratio,Homo sapiens,0.71
Cc1cc2c(cc1C)-c1occ(C)c1C(=O)C2=O,inhibition in vivo at 30 mg/kg,A549 [4],67.5%
same,Ratio IC50,[3],10.6
same,Activity,[1],142 µmol/min
same,Activity,[2],-1.09 V
same,TGI,A549 [5],Active
same,Activity,Mus musculus [6],Non-Toxic
same,IC50,NCI-H596,35 µM
same,IC50,A549 [7],21 µM
same,Activity,Mus musculus [8],Non-Toxic
Cc1coc2c1C(=O)C(=O)c1c(C)ccc(C)c1-2,Ratio IC50,[3],5.86
same,Activity,[1],672 µmol/min
same,Activity,[2],-1.07 V
same,Selectivity ratio,Homo sapiens,1.38
CC1(C)CCC2=C(O1)C(=O)c1ccccc1C2=O [ALPHA-LAPACHONE],Activity,[1],1010 µmol/min
same,Activity,[2],-1.22 V
same,Selectivity ratio,Homo sapiens,0.72
O=C1C(=O)c2ccoc2-c2ccccc21,Activity,[1],1221 µmol/min
same,Activity,[2],-0.98 V
same,Selectivity ratio,Homo sapiens,1.18
CC1(C)CCC2=C(O1)c1ccccc1C(=O)C2=O [LAPACHONE],growth inhibition (GI),[9],Active
same,inhibition in vivo at 30 mg/kg,A549 [4],70.7%
same,Activity,[1],923 µmol/min
same,Activity,[2],-1.02 V
COc1ccc2c(c1)C(=O)C(=O)C1=C2OC(C)C1(C)C (configuration not stated),Activity,[1],782 µmol/min
same,Activity,[2],-1.09 V
CCc1coc2c1C(=O)C(=O)c1cc(C)ccc1-2,Ratio IC50,[3],8.06
same,Activity,[1],796 µmol/min
same,Selectivity ratio,Homo sapiens,1.63
Cc1cc(=O)n(C)c2c1C(=O)C1=C(C=CC(C)(C)O1)C2=O,Activity,[1],1422 µmol/min
same,Activity,[2],-0.9 V
same,Selectivity ratio,Homo sapiens,0.81
CCc1coc2c1C(=O)C(=O)c1ccccc1-2,Activity,[1],1382 µmol/min
same,Selectivity ratio,Homo sapiens,0.54
CC1OC2=C(C(=O)c3ccccc3C2=O)C1(C)C (stereo not drawn) [ALPHA-DUNNIONE],Activity,[1],1011 µmol/min
same,Activity,[2],-1.19 V
same,Selectivity ratio,Homo sapiens,0.72
CC1OC2=C(C(=O)C(=O)c3ccccc32)C1C (configuration not stated),Activity,[1],659 µmol/min
same,Selectivity ratio,Homo sapiens,1.1
